The source of these data is patent US12486302B2, “Somatostatin receptor antagonist compounds and methods of using the same” (CDRD VENTURES INC., priority 2016, dated 2025).

The target in one assay is SSTR5 (Homo sapiens, UniProt P35346). Kind of assay: PathHunter β-Arrestin assay, antagonist mode, SSTR5. It counts as cell-based. Particulars: agonist challenge at EC80. The protocol:
(§1) The PathHunter® β-Arrestin assay monitors the activation of a GPCR in a homogenous, non-imaging assay format using a technology developed by DiscoveRx called Enzyme Fragment Complementation (EFC) with β-galactosidase (β-Gal) as the functional reporter. […] EA is fused to β-Arrestin and […] is fused to the GPCR of interest. When the GPCR is activated and β-Arrestin is recruited to the receptor, ED and EA complementation occurs, restoring β-Gal activity which is measured using chemiluminescent PathHunter® Detection Reagents. For antagonist determination, cells were pre-incubated with the compounds followed by agonist challenge at the EC80 concentration. Data was normalized to the maximal and minimal response observed in the presence of EC80 ligand and vehicle. Compound activity was analyzed using CBIS data analysis suite ChemInnovation, CA). Percentage inhibition was calculated using the following formula: % Inhibition=100%×(1−(mean signal of test sample-mean signal of vehicle control)/(mean signal of EC80 control-mean signal of vehicle control)). Percentage inhibition was calculated at 10 concentrations in steps on a Log 3 scale ranging from […] to 5e-5 μM. The results were plotted for IC50 calculation.

For the next assay, the target named is SSTR1 (Homo sapiens, UniProt P30872). The experiment in a line: PathHunter β-Arrestin assay, antagonist mode, SSTR1. It counts as cell-based. Particulars: agonist challenge at EC80. The protocol:
as §1

Another assay concerns the target SSTR4 (Homo sapiens, UniProt P31391). Kind of assay: PathHunter β-Arrestin assay, antagonist mode, SSTR4. It counts as cell-based. Particulars: agonist challenge at EC80. On the procedure:
as §1

Another assay deals with SSTR3 (Homo sapiens, UniProt P32745). The experiment in a line: PathHunter β-Arrestin assay, antagonist mode, SSTR3. It counts as cell-based. Conditions: agonist challenge at EC80. The protocol:
as §1

Assay [1] has as its target somatostatin type 2 (SSTR2) receptors (Homo sapiens, UniProt P30874). Kind of assay: PathHunter β-Arrestin assay, antagonist mode, SSTR2. It counts as cell-based. Particulars: agonist challenge at EC80. Put shortly: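 Cells co-expressing PK-tagged human receptor and EA-β-Arrestin were pre-incubated with compound, then challenged with agonist at EC80. β-Gal complementation read by chemiluminescence; % inhibition normalized to EC80 and vehicle controls at 10 concentrations (log 3 steps from 1 μM down to 5e-5 μM), fitted for IC50.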

Assay [2] deals with STZ diabetic Sprague Dawley rats. Kind of assay: Hypoglycemic Challenge #2 (20 U/kg insulin) in STZ diabetic rats. It counts as in vivo, rat. Particulars: 20 U/kg insulin challenge; target BG 2.5 mM; N=9. The protocol:
(§2) Male Sprague Dawley rats (initial weight 150-175 g) were purchased from Charles River Laboratories (Montreal, QC, Canada). Rats were housed in the York University Vivarium in a 12-hour light dark cycle. All animals were fed a standard rodent chow diet (14% fat, 54% carbohydrates, […] & 3.0 calories/g of food) and water ad libitum. After a minimum of one week of acclimation, all animals received an intraperitoneal injection of streptozotocin (STZ) (Sigma) at a dose of 65 mg/kg body weight. After STZ injection, animals were provided with sugar water (5% solution) overnight. Any animals whose blood glucose was not greater than 10 mM within 2 days of STZ injection received a second injection.
One week after induction of diabetes, insulin treatment was initiated to maintain blood glucose values within a reasonable glucose controlled range in the fasted state (8-20 mM). Insulin pellets (LinChin, Toronto, ON, Canada) were implanted subcutaneously in any rat with blood glucose over 20 mM. […]
One week after the first hypoglycemia challenge, a second similar hypoglycemic challenge (Hypoglycemia Challenge #2) was conducted; however this time a higher dose of insulin was given to insure that severe hypoglycemia developed (20U Novo Rapid/kg body weight). Blood glucose was monitored, every 5-10 min, via saphenous vein puncture. […]

Assay [3] shares this test system. Kind of assay: Hypoglycemic Challenge #1 (10 U/kg insulin) in STZ diabetic rats. It counts as in vivo, rat. The protocol: as §2
One week after induction of diabetes, insulin treatment was initiated to maintain blood glucose values within a reasonable glucose controlled range in the fasted state (8-20 mM). Insulin pellets (LinChin, Toronto, ON, Canada) were implanted subcutaneously in any rat with blood glucose over 20 mM. Briefly, animals were anesthetized via inhaled isoflurane and pellets were implanted subcutaneously within the scapular region. One week later animals underwent their first hypoglycemic challenge (Hypoglycemic Challenge #1), followed by a second hypoglycemic challenge (Hypoglycemic Challenge #2) the following week (see below). Throughout the study, daily animals checks were conducted to assess body weight, blood glucose as well as food/calorie consumption.
Animals were divided into groups and received Compound 4, or Compound 24 or a corresponding dose of vehicle. Compounds were given 1 hour prior to commencement of the hypoglycemic challenge. On the morning of the hypoglycemic challenge, food was removed from the cage and a plasma sample was collected as baseline (prior to compound/vehicle administration), one-hour post drug/vehicle administration and at set points throughout the challenges.
For Hypoglycemic Challenge #1, hypoglycemia was induced via subcutaneous administration of a bolus of insulin (10U Novo Rapid insulin/kg body weight). Blood glucose was assessed every 10 minutes via saphenous vein puncture. Additionally, plasma was collected from the saphenous vein every 20 minutes, until 100-minutes post insulin administration. An additional plasma sample was collected 4-hours post drug administration (3 hours post insulin bolus) for mass spectrometry analysis of the compounds in plasma.

*1 amine or outer side, *2 acyl side, *3 side chain or, on linkers, in order; H or OH if unused. Where a SMILES comes first, the peptide text is derived from it. Bridges are numbered along the chain shown (N, C = ends). Side-chain parts run from the residue outwards. [ ]: non-standard residue; d: D form. The star is where a group is joined. X1 = O=C([C@@H](Cc1ccc(NS(=O)(=O)c2ccccc2)cc1)N[*:1])[*:2]; dPhe(4-CH2NHCONH2) = NC(=O)NCc1ccc(C[C@@H](N)C(=O)O)cc1; X2 = CCCCCNc1ccc(C[C@@H](N[*:1])C(=O)[*:2])cc1; dPhe(4-NH2) = Nc1ccc(C[C@@H](N)C(=O)O)cc1; Phe(4-Cl) = N[C@@H](Cc1ccc(Cl)cc1)C(=O)O; dCit = NC(=O)NCCC[C@@H](N)C(=O)O; Cit = NC(=O)NCCC[C@H](N)C(=O)O; Nicotinoyl = O=C(c1cccnc1)*; CO = O=C([*:1])[*:2]; NHPh = c1ccc(N*)cc1

SSTR5, sequence (P35346 whole entry, the tested form may be a part): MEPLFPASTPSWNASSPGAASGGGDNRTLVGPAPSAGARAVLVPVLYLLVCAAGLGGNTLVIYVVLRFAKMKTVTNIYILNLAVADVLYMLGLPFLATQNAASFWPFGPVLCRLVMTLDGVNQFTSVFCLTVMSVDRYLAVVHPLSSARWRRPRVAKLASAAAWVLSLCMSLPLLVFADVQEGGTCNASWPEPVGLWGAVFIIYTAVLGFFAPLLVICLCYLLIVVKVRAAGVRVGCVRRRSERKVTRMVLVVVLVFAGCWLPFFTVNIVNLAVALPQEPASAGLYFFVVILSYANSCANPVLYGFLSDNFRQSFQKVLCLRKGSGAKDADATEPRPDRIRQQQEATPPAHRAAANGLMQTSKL
somatostatin type 2 (SSTR2) receptors, sequence (P30874 whole entry): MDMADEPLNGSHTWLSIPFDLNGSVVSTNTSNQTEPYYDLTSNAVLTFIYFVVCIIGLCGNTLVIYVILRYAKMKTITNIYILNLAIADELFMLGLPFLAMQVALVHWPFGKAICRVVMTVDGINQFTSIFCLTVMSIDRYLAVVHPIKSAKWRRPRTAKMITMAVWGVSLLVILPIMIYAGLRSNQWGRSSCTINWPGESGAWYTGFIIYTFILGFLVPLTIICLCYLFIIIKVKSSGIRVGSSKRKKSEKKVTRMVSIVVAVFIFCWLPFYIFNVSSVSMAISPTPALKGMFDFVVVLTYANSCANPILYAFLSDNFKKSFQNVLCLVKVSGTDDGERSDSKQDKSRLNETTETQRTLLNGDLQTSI
SSTR3, sequence (P32745 whole entry): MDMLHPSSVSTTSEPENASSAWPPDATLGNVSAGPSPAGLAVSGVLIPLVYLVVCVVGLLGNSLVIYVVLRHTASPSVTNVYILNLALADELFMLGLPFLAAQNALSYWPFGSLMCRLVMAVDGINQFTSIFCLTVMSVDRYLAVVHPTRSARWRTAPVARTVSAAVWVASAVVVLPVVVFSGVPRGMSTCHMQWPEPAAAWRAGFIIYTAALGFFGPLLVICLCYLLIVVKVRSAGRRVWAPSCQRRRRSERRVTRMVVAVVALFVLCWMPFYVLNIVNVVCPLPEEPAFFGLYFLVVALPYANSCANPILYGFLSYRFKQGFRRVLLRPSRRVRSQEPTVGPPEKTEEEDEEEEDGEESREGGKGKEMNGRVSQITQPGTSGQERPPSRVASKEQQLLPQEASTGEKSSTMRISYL
SSTR4, sequence (P31391 whole entry): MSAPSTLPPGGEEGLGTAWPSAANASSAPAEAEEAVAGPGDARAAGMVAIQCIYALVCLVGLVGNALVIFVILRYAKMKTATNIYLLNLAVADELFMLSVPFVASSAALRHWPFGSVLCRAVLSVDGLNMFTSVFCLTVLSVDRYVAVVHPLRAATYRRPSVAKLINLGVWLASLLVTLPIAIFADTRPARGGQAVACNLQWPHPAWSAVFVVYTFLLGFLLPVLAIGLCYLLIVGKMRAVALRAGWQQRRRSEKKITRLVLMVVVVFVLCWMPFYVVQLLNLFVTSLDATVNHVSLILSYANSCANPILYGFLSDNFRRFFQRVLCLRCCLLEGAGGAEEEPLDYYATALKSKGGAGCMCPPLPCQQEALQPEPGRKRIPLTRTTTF
SSTR1, sequence (P30872 whole entry): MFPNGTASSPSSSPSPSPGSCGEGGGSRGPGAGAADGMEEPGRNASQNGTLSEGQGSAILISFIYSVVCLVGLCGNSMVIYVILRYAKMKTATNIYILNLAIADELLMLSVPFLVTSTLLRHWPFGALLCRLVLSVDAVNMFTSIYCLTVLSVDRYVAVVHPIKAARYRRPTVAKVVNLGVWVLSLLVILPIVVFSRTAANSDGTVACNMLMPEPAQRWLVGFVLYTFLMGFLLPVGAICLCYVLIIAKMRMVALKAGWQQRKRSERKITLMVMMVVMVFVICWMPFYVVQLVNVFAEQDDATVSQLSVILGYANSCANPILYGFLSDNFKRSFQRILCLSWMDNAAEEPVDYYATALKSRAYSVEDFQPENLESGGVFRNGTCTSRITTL

On to `C[C@@H](O)[C@@H]1NC(=O)[C@H](CCCCN)NC(=O)[C@@H](Cc2ccc(NS(=O)(=O)c3ccccc3)cc2)NC(=O)[C@H](Cc2ccc(O)cc2)NC(=O)[C@H](NC(=O)[C@@H](N)Cc2ccc(Cl)cc2)CSSC[C@@H](C(=O)N[C@H](Cc2ccc(O)cc2)C(N)=O)NC1=O` [Compound 14, H-Cpa-cyclo[DCys- Tyr-D-4- (benzenesulfonyl) Aph-Lys-Thr- Cys]-DTyr-NH2] (H-[Phe(4-Cl)][dC]Y[X1]KTC[dY]-NH2; disulfide 2-7), for which the IC50 on SSTR5 is over 1 µM; on SSTR1, over 1 µM; on SSTR4, over 1 µM; on SSTR3 it was over 1 µM; in assay [1], 0.021 µM.

As to `C[C@@H](O)[C@@H]1NC(=O)[C@H](CCCCN)NC(=O)[C@@H](CCCNC(N)=O)NC(=O)[C@H](Cc2ccc(O)cc2)NC(=O)[C@H](NC(=O)[C@@H](N)Cc2ccc(Cl)cc2)CSSC[C@@H](C(=O)N[C@H](Cc2ccc(O)cc2)C(N)=O)NC1=O` [Compound 1, H-Cpa-cyclo[D-Cys-Tyr-D-Cit-Lys-Thr-Cys]-D-Tyr-NH2] (H-[Phe(4-Cl)][dC]Y[dCit]KTC[dY]-NH2; disulfide 2-7), the IC50 at SSTR5 was over 1 µM; on SSTR1 it was over 1 µM; on SSTR4 it was over 1 µM; at SSTR3, over 1 µM; in assay [1], 0.034 µM.

On to `C[C@@H](O)[C@@H]1NC(=O)[C@H](CCCCN)NC(=O)[C@@H](Cc2ccc(C(N)=O)cc2)NC(=O)[C@H](Cc2ccc(O)cc2)NC(=O)[C@H](NC(=O)[C@@H](N)Cc2ccc(Cl)cc2)CSSC[C@@H](C(=O)N[C@H](Cc2ccc(O)cc2)C(N)=O)NC1=O` [Compound 4, H-Cpa-cyclo[D-Cys-Tyr-D-Phe(4-carbamoyl)-Lys-Thr-Cys]-D-Tyr-NH2], for which the half-inhibitory concentration (IC50) is over 1 µM on SSTR5; over 1 µM on SSTR1; over 1 µM on SSTR4; over 1 µM on SSTR3; 0.017 µM in assay [1]. Moreover, the “average portal blood glucagon concentration at hypoglycemia” value in assay [2] was found to be 462 pg/mL. In assay [3] (2-Way ANOVA, insulin 10 U/kg, N=9), the “period after insulin with significantly higher BG values compared with Vehicle Control” value came to 20 min. Also, the “incidence of severe hypoglycemia (BG threshold 1.9 mM)” value in assay [3] (after 130 minutes) was determined as 33%. In addition, in assay [3] (saphenous blood, 0 to 100 minutes after insulin dosing, N=9), the peak glucagon value is reported as 180 pg/mL.

As for `C[C@@H](O)[C@@H]1NC(=O)[C@H](CCCCN)NC(=O)[C@@H](Cc2ccc(NC(=O)Nc3ccccc3)cc2)NC(=O)[C@H](Cc2ccc(O)cc2)NC(=O)[C@H](NC(=O)[C@@H](N)Cc2ccc(Cl)cc2)CSSC[C@@H](C(=O)N[C@H](Cc2ccc(O)cc2)C(N)=O)NC1=O` [Compound 15, H-Cpa-cyclo[D-Cys-Tyr-D-Phe(4-phenylureido)-Lys-Thr-Cys]-D-Tyr-NH2] (H-[Phe(4-Cl)][dC]Y[dPhe(4-NH2)]([CO-NHPh])KTC[dY]-NH2; disulfide 2-7), the IC50 on SSTR5 is over 1 µM; at SSTR1, over 1 µM; at SSTR4, over 1 µM; on SSTR3, over 1 µM; in assay [1], 0.001 µM.

With `C[C@@H](O)[C@@H]1NC(=O)[C@H](CCCCN)NC(=O)[C@@H](Cc2ccc(CNC(N)=O)cc2)NC(=O)[C@H](Cc2ccc(O)cc2)NC(=O)[C@H](NC(=O)[C@@H](N)Cc2ccc(Cl)cc2)CSSC[C@@H](C(=O)N[C@H](Cc2ccc(O)cc2)C(N)=O)NC1=O` [Compound 7, H-Cpa-cyclo[DCys- Tyr-D-(4- ureidomethyl) Phe-Lys- Thr-Cys]-DTyr-NH2] (H-[Phe(4-Cl)][dC]Y[dPhe(4-CH2NHCONH2)]KTC[dY]-NH2; disulfide 2-7), the IC50 at SSTR5 was over 1 µM; on SSTR1, over 1 µM; on SSTR4, over 1 µM; at SSTR3 it was over 1 µM; in assay [1], 0.031 µM.

Consider `CCCCCNc1ccc(C[C@H]2NC(=O)[C@H](Cc3ccc(O)cc3)NC(=O)[C@H](NC(=O)[C@@H](N)Cc3ccc(Cl)cc3)CSSC[C@@H](C(=O)N[C@H](Cc3ccc(O)cc3)C(N)=O)NC(=O)[C@H]([C@@H](C)O)NC(=O)[C@H](CCCCN)NC2=O)cc1` [Compound 12, H-Cpa-cyclo[D-Cys-Tyr-D-Phe(4-n-pentylamino)-Lys-Thr-Cys]-D-Tyr-NH2] (H-[Phe(4-Cl)][dC]Y[X2]KTC[dY]-NH2; disulfide 2-7), for which the 50% inhibitory concentration (IC50) at SSTR5 was over 1 µM; on SSTR1, over 1 µM; on SSTR4, over 1 µM; at SSTR3, over 1 µM; in assay [1] it was 0.017 µM.

With `C[C@@H](O)[C@@H]1NC(=O)[C@H](CCCCN)NC(=O)[C@@H](Cc2ccc(NC(=O)CN)cc2)NC(=O)[C@H](Cc2ccc(O)cc2)NC(=O)[C@H](NC(=O)[C@@H](N)Cc2ccc(Cl)cc2)CSSC[C@@H](C(=O)N[C@H](Cc2ccc(O)cc2)C(N)=O)NC1=O` [Compound 8, H-Cpa-cyclo[DCys- Tyr-D-4-(Gly) Aph-Lys- Thr-Cys]-DTyr-NH2] (H-[Phe(4-Cl)][dC]Y[dPhe(4-NH2)](Gly)KTC[dY]-NH2; disulfide 2-7), the half-inhibitory concentration (IC50) on SSTR3 is over 1 µM; in assay [1], 0.084 µM.

Turning to `C[C@@H](O)[C@@H]1NC(=O)[C@H](CCCCN)NC(=O)[C@@H](Cc2ccc(NC(=O)[C@@H](N)CCCNC(N)=O)cc2)NC(=O)[C@H](Cc2ccc(O)cc2)NC(=O)[C@H](NC(=O)[C@@H](N)Cc2ccc(Cl)cc2)CSSC[C@@H](C(=O)N[C@H](Cc2ccc(O)cc2)C(N)=O)NC1=O` [Compound 22, H-Cpa-cyclo[DCys- Tyr-D-4-(Cit)Aph- Lys-Thr-Cys]- DTyr-NH2] (H-[Phe(4-Cl)][dC]Y[dPhe(4-NH2)](Cit)KTC[dY]-NH2; disulfide 2-7), the IC50 on SSTR3 is over 1 µM; in assay [1], 0.417 µM.

Turning to `C[C@@H](O)[C@@H]1NC(=O)[C@H](CCCCN)NC(=O)[C@@H](CCCCNC(=O)c2cccnc2)NC(=O)[C@H](Cc2ccc(O)cc2)NC(=O)[C@H](NC(=O)[C@@H](N)Cc2ccc(Cl)cc2)CSSC[C@@H](C(=O)N[C@H](Cc2ccc(O)cc2)C(N)=O)NC1=O` [Compound 3, H-Cpa-cyclo[DCys- Tyr-D-(N^ϵ- nicotinoyl)Lys-Lys- Thr-Cys]-DTyr-NH2] (H-[Phe(4-Cl)][dC]Y[dK](Nicotinoyl)KTC[dY]-NH2; disulfide 2-7), the figures for the IC50 (on SSTR3; in assay [1]) were over 1 µM and 0.251 µM, respectively.

Consider `C[C@@H](O)[C@@H]1NC(=O)[C@H](CCCCN)NC(=O)[C@@H](Cc2ccc(NC(=O)[C@@H](N)CC(=O)O)cc2)NC(=O)[C@H](Cc2ccc(O)cc2)NC(=O)[C@H](NC(=O)[C@@H](N)Cc2ccc(Cl)cc2)CSSC[C@@H](C(=O)N[C@H](Cc2ccc(O)cc2)C(N)=O)NC1=O` [Compound 18, H-Cpa-cyclo[DCys- Tyr-D-4-(Asp) Aph-Lys-Thr- Cys]-DTyr-NH2] (H-[Phe(4-Cl)][dC]Y[dPhe(4-NH2)](Asp)KTC[dY]-NH2; disulfide 2-7), for which the IC50 (at SSTR3; in assay [1]) was over 1 µM throughout.
